# Source: patent publication US8258128B2, “Organic compounds” (Novartis AG, priority 2006, dated 2012)
# “Also recorded” adds a separate entry of the source. Like-named read-outs stand apart in the source and are kept apart here. Marks after values point to notes of the source that are not given here.
# What was measured:
# [1] = system: established Adjuvant-induced arthritis in rats; test: Established adjuvant-induced arthritis in rats (therapeutic dosing schedule); format: in vivo, rat; conditions: for ED50: Rattus norvegicus, read-out: Estimated ED50
# Description: Adjuvant arthritis can be treated using two different dosing schedules; either starting at the time of immunization with adjuvant (prophylactic dosing) or from day 15 when the arthritic response is already established (therapeutic dosing). It is more difficult to inhibit adjuvant arthritis with the therapeutic dosing schedule as compared to the prophylactic schedule. Both versions of adjuvant arthritis are, however, extremely sensitive to the effects of both non-selective COX inhibitors and COX 2 selective inhibitors where 70-90% inhibition of swelling can be achieved at appropriate doses. These models may be predictive for some of the processes thought to be relevant in rheumatoid arthritis.
# Method: Female Wistar rats weighing 150-170 g (housed in standard conditions, 5 animals per cage, with food and water ad libitum) are injected i.d. at the base of the tail with 0.1 ml of mineral oil containing 0.6 mg of lyophilized heat-killed Mycobacterium tuberculosis. The rats are treated orally with COMPOUND A or placebo formulation from day 15 to day 22 (therapeutic dosing schedule) or with COMPOUND A from day 0 to day 14 after immunization (prophylactic dosing schedule). At the end of the experiment, the swelling of the tarsal joints is measured by means of a micro-caliper. For the comparison study to Diclofenac both compounds are given from day 15 to day 29 with readouts at day 22 and 29. Percentage inhibition of paw swelling is calculated by reference to placebo treated arthritic animals (0% inhibition) and placebo treated normal animals (100% inhibition). Five animals are used per group. Data are analyzed using Kruskal-Wallis non-parametric ANOVA followed by Dunn's Multiple Comparison test.
# [2] = system: collagen-induced arthritis in the rats; test: Collagen-induced arthritis in the rats, hind paw swelling; format: in vivo, rat
# Description: Animal models of RA need to reflect at least some of the features found in human RA (Billingham et al., 1979). Collagen-induced arthritis (CIA) has been proposed to meet these requirements (Durie et al., 1994). Especially the similarity in the joint pathophysiology makes this animal model most attractive for the evaluation of anti-rheumatic drugs (Takeshita et al., 1997). Synovial hyperplasia, which is an integral part of the disease, parallels the migration of leukocytes into the joint space; erosion and destruction of the cartilage surface can also be found (Holmdahl et al., 1985). The rat CIA, originally described by Trentham et al. (1977), was established and extensive studies with CsA were done, including three-dimensional magnetic resonance imaging (MRI) and histology (Beckmann et al., 1995; 1998). Differences in the susceptibility of several rat strains for the development of the disease have been reported (Cremer et al., 1995; Kamada et al., 1997; Knoerzer et al., 1997).
# Method: For this study, COMPOUND A and COX-inhibitor Diclofenac are dissolved in a solvent containing 5% of glucose (5 ml/kg). Compounds are given orally once a day. Female rats of the WAGxBUF/F1 crossbred strain (weight 130 g) are used. The animals are divided into several groups, one placebo group (N=8), and four treatment groups (each N=7-8). Treatment starts on peak of disease (day 0) and continues for 11 days. Swelling is assessed at regular time intervals by measuring the external thickness of the hind paws in the region of the metatarsals using a micro-caliper. Tissue samples for histological evaluation are obtained at the end of the in vivo experiment, 5 h after the last oral dose of COMPOUND A or placebo on day 11.
# Results shown are means±SEM of groups of each 4-8 animals of paw diameters in mm on day-12 (before the immunization with Type II collagen in incomplete Freund's adjuvant), day 0 (start of treatment) and day 11 (end of treatment).
# The data shown represent the ability of the treatment (COMPOUND A at 4 different increasing doses) to reduce the volume of the hind paw measured at day 2, day 7 and day 11.
# [3] = Tolerability relative to effective dose in chronic disease models (general statement); format: in vivo; conditions: doses more than 10 times higher than the effective dose in chronic disease models
# [4] = 0.3 mg/kg/day p.o., 7 day treatment (Table 7)
# [5] = 1 mg/kg/day p.o., 7 day treatment (Table 7)
# [6] = 1.25 mg/kg/day p.o., 7 days treatment, readout day 22 (Table 8)
# [7] = 1.25 mg/kg/day p.o., 14 days treatment, readout day 29 (Table 8)
# [8] = 2.5 mg/kg/day p.o., 7 days treatment, readout day 22 (Table 8)
# [9] = 2.5 mg/kg/day p.o., 14 days treatment, readout day 29 (Table 8)
# [10] = 3 mg/kg/day p.o., 7 day treatment (Table 7)
# [11] = 5 mg/kg/day p.o., 7 days treatment, readout day 22 (Table 8)
smiles,measurement,setting,value
"COC1=Nc2cc(Cl)ccc2/C(=C/C(=O)O)c2sc(Cl)cc21 [COMPOUND A, [2,7-Dichloro-10-methoxy-3-thia-9-aza-benzo[f]azulen-(4Z)-ylidene]-acetic acid]",% inhibition,[1]; [4],15.8 * %
same,Swelling (mm) ± S.D.,[1]; [4],6.79 ± 0.9 mm
same,% inhibition,[1]; [5],39.0 * %
same,Swelling (mm) ± S.D.,[1]; [5],4.92 ± 0.63 mm
same,% inhibition,[1]; [6],51.0 * %
same,Swelling (mm) ± S.D.,[1]; [6],4.22 ± 0.57 mm
same,% inhibition,[1]; [7],60.3 * %
same,Swelling (mm) ± S.D.,[1]; [7],3.06 ± 0.63 mm
same,% inhibition,[1]; [8],60.5 * %
same,Swelling (mm) ± S.D.,[1]; [8],3.40 ± 0.92 mm
same,% inhibition,[1]; [9],62.0 * %
same,Swelling (mm) ± S.D.,[1]; [9],2.93 ± 0.80 mm
same,% inhibition,[1]; [10],45.0 * %
same,Swelling (mm) ± S.D.,[1]; [10],4.41 ± 0.59 mm
same,% inhibition,[1]; [11],65.0 * %
same,Swelling (mm) ± S.D.,[1]; [11],2.94 ± 1.28 mm
same,Swelling (mm) ± S.D.,"[1]; 5 mg/kg/day p.o., 14 days treatment, readout day 29 (Table 8)",2.23 ± 0.66 mm
same,Swelling (mm) ± S.D.,"[1]; 9 mg/kg/day p.o., 7 day treatment (Table 7)",2.84 ± 0.73 mm
same,ED50,"[1]; 336 h, 2 week treatment schedule",< 1.25 mg/kg
same,ED50,"[1]; po, 168 h, p.o., one week treatment schedule",≤ 1.25 mg/kg
same,"hind paw diameter, mean ± SEM","[2]; 0.3 mg/kg group, Day 0 (start of treatment)",5.406 ± 0.448 mm
same,"hind paw diameter, mean ± SEM","[2]; 0.3 mg/kg group, Day −12 (before immunization)",3.069 ± 0.016 mm
same,"median inhibition of swelling, analysis of the AUC during day 0 to 11",[2]; 0.3 mg/kg per day p.o.,29±9.2%
same,Effect on hind paw swelling,"[2]; 0.3 mg/kg per day p.o., Day 0-11 (AUC)",−29 ± 9.2%
same,Effect on hind paw swelling,"[2]; 0.3 mg/kg per day p.o., Day 2",−33% **
same,Effect on hind paw swelling,"[2]; 0.3 mg/kg per day p.o., Day 7",−31% *
same,Effect on hind paw swelling,"[2]; 0.3 mg/kg per day p.o., Day 11",−20%
same,"hind paw diameter, mean ± SEM","[2]; 0.3 mg/kg per day p.o., Day 11 (end of treatment)",4.417 ± 0.079 mm
same,"hind paw diameter, mean ± SEM","[2]; 1 mg/kg group, Day 0 (start of treatment)",5.350 ± 0.344 mm
same,"hind paw diameter, mean ± SEM","[2]; 1 mg/kg group, Day −12 (before immunization)",3.107 ± 0.046 mm
same,"median inhibition of swelling, analysis of the AUC during day 0 to 11",[2]; 1 mg/kg per day p.o.,37±6.8%
same,Effect on hind paw swelling,"[2]; 1 mg/kg per day p.o., Day 0-11 (AUC)",−37 ± 6.8%
same,Effect on hind paw swelling,"[2]; 1 mg/kg per day p.o., Day 2",−40% **
same,Effect on hind paw swelling,"[2]; 1 mg/kg per day p.o., Day 7",−38% **
same,Effect on hind paw swelling,"[2]; 1 mg/kg per day p.o., Day 11",−47% ***
same,"hind paw diameter, mean ± SEM","[2]; 1 mg/kg per day p.o., Day 11 (end of treatment)",3.983 ± 0.064 mm
same,"hind paw diameter, mean ± SEM","[2]; 3 mg/kg group, Day 0 (start of treatment)",5.379 ± 0.224 mm
same,"hind paw diameter, mean ± SEM","[2]; 3 mg/kg group, Day −12 (before immunization)",3.136 ± 0.026 mm
same,"median inhibition of swelling, analysis of the AUC during day 0 to 11",[2]; 3 mg/kg per day p.o.,51±7.1%
same,Effect on hind paw swelling,"[2]; 3 mg/kg per day p.o., Day 0-11 (AUC)",−51 ± 7.1%
same,Effect on hind paw swelling,"[2]; 3 mg/kg per day p.o., Day 2",−59% ***
same,Effect on hind paw swelling,"[2]; 3 mg/kg per day p.o., Day 7",−47% ***
same,Effect on hind paw swelling,"[2]; 3 mg/kg per day p.o., Day 11",−71% ***
same,"hind paw diameter, mean ± SEM","[2]; 3 mg/kg per day p.o., Day 11 (end of treatment)",3.592 ± 0.085 mm
same,"hind paw diameter, mean ± SEM","[2]; 9 mg/kg group, Day 0 (start of treatment)",5.364 ± 0.231 mm
same,"hind paw diameter, mean ± SEM","[2]; 9 mg/kg group, Day −12 (before immunization)",3.043 ± 0.028 mm
same,"median inhibition of swelling, analysis of the AUC during day 0 to 11",[2]; 9 mg/kg per day p.o.,67±5.4%
same,Effect on hind paw swelling,"[2]; 9 mg/kg per day p.o., Day 0-11 (AUC)",−67 ± 5.4%
same,Effect on hind paw swelling,"[2]; 9 mg/kg per day p.o., Day 2",−69% ***
same,Effect on hind paw swelling,"[2]; 9 mg/kg per day p.o., Day 7",−75% ***
same,Effect on hind paw swelling,"[2]; 9 mg/kg per day p.o., Day 11",−90% ***
same,"hind paw diameter, mean ± SEM","[2]; 9 mg/kg per day p.o., Day 11 (end of treatment)",3.275 ± 0.038 mm
same,detrimental effect on body weight gain,"[2]; 0.3 to 9 mg/kg per day p.o., 11 days",not observed; also recorded: does not interfere with body weight gain
same,tolerability,[3],very well tolerated
